Test results: publication PMC4809247 (Journal of medicinal chemistry, 2015)

Tests used:
[1] = target: rat mGlu3 (Rattus norvegicus, UniProt P31422); settings: calcium mobilization; average of n ≥ 3
[2] = target: rat mGlu5 (Rattus norvegicus, UniProt P31424); assay: Calcium mobilization mGlu5 assay; type: cell-based; settings: for mGlu5 pEC50 (± SEM): calcium mobilization, average of n ≥ 3 (n = 2 where marked)
rat mGlu5, sequence (P31424 21-1203): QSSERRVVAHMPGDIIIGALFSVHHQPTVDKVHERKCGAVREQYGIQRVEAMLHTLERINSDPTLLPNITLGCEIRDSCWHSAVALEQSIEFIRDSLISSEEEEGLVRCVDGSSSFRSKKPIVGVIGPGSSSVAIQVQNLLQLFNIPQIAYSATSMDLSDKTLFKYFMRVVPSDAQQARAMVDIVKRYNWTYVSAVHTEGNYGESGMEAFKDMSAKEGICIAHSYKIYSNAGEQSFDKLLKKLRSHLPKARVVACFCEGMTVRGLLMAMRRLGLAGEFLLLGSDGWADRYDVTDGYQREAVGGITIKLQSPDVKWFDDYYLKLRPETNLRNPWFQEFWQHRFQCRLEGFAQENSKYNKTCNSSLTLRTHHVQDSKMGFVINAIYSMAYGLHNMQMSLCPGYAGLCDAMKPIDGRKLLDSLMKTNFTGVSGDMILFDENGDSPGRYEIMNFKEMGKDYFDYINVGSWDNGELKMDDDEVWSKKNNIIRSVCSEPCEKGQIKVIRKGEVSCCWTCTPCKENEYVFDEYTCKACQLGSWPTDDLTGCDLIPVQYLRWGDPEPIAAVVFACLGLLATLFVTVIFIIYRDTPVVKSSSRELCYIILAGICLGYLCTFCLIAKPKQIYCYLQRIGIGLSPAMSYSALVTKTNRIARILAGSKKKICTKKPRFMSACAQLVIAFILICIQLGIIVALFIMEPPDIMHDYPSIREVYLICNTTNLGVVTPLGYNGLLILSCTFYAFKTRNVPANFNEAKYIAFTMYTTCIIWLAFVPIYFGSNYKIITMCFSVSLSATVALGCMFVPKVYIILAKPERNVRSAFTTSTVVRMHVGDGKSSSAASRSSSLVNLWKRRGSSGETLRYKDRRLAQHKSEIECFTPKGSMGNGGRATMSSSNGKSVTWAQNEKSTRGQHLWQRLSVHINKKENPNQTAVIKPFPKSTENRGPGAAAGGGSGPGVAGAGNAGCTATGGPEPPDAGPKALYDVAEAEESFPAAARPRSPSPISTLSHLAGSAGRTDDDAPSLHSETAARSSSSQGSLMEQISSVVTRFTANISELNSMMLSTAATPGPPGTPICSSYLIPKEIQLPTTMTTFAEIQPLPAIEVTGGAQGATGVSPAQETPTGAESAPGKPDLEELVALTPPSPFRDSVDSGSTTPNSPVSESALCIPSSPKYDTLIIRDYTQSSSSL

rat mGlu3, sequence (P31422 23-879): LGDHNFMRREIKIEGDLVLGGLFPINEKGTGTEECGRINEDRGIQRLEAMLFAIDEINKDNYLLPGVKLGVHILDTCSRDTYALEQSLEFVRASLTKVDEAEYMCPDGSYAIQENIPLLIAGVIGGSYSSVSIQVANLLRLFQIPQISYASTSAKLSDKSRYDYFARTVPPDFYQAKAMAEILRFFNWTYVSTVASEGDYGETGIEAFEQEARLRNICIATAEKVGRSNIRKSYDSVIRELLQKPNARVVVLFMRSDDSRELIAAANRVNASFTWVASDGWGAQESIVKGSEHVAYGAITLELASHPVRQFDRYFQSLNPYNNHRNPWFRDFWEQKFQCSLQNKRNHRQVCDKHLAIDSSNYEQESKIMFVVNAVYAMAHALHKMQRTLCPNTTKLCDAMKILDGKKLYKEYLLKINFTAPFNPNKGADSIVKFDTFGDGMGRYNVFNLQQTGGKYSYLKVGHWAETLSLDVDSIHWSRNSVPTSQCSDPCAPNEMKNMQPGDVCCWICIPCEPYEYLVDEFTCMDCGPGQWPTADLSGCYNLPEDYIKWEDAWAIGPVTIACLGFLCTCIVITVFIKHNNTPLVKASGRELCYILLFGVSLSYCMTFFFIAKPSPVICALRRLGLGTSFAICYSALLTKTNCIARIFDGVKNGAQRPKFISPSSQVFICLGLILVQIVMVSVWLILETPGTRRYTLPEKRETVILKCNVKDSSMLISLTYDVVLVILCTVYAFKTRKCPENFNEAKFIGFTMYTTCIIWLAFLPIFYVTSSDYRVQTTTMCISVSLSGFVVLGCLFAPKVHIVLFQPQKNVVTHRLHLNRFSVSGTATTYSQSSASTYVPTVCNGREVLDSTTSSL

| Compound | mGlu3 pIC50 (± SEM) [1] | mGlu5: no activity up to the highest concentration tested [2] | mGlu5 pEC50 (± SEM) [2] |
| --- | --- | --- | --- |
| C[C@@H]1CN(c2ncccc2F)C(=O)c2cc(COc3ccc(Cl)cn3)nn21 [Compound 102] | 6.44 ± 0.03 |  |  |
| C[C@@H]1CN(c2ccc(F)cn2)C(=O)c2cc(COc3ccc(F)cn3)nn21 [Compound 72] | 6.46 ± 0.07 |  |  |
| COc1cccnc1OCc1cc2n(n1)[C@H](C)CN(c1ccc(F)cc1)C2=O [Compound 43] |  | > 30 µM | <4.5 |
| Cc1cccc(N2C[C@@H](C)n3nc(COc4ccc(Cl)cn4)cc3C2=O)c1 [Compound 86] | 6.41 ± 0.05 |  |  |
| C[C@@H]1CN(c2ccc(F)cc2)C(=O)c2cc(COc3ccc(F)cc3F)nn21 [Compound 25] | 6.38 ± 0.22 |  | 6.51 ± 0.05 |
| Cc1ccc(N2C[C@@H](C)n3nc(COc4ccc(Cl)cn4)cc3C2=O)cc1 [Compound 87] | 6.39 ± 0.21 |  |  |
| C[C@@H]1CN(c2ccc(F)cc2)C(=O)c2cc(COc3ncccc3F)nn21 [Compound 41] | 5.96 ± 0.02 |  |  |
| C[C@@H]1CN(c2ccc(Cl)cc2)C(=O)c2cc(COc3ccc(F)cn3)nn21 [Compound 59] | 6.71 ± 0.13 |  |  |
| C[C@@H]1CN(c2ccc(F)cc2)C(=O)c2cc(COc3ccccc3Cl)nn21 [Compound 29] | 6.27 ± 0.18 |  |  |
| Cc1ccnc(OCc2cc3n(n2)[C@H](C)CN(c2ccc(F)cc2)C3=O)c1 [Compound 44] | 5.68 ± 0.01 |  |  |
| COc1cccc(N2C[C@@H](C)n3nc(COc4ccc(F)cn4)cc3C2=O)c1 [Compound 64] | 6.70 ± 0.06 |  |  |
| C[C@@H]1CN(c2cccc(F)c2)C(=O)c2cc(COc3ccc(Cl)cn3)nn21 [Compound 81] | 6.69 ± 0.04 |  |  |
| C[C@@H]1CN(c2ccc(Cl)cc2)C(=O)c2cc(COc3ccc(Cl)cn3)nn21 [Compound 84] | 5.91 ± 0.25 |  |  |
| C[C@@H]1CN(c2ncccc2C#N)C(=O)c2cc(COc3ccc(Cl)cn3)nn21 [Compound 103] |  |  | <4.5 |
| C[C@@H]1CN(c2ccc(F)cc2)C(=O)c2cc(COc3ccccc3F)nn21 [Compound 22] | 6.28 ± 0.20 |  | 6.71 ± 0.04 |
| COc1ccnc(OCc2cc3n(n2)[C@H](C)CN(c2ccc(F)cc2)C3=O)c1 [Compound 46] | 5.43 ± 0.00 |  |  |
| C[C@@H]1CN(c2ccccc2C#N)C(=O)c2cc(COc3ccc(Cl)cn3)nn21 [Compound 91] | 6.37 ± 0.05 |  |  |
| COc1ccccc1OCc1cc2n(n1)[C@H](C)CN(c1ccc(F)cc1)C2=O [Compound 32] | 5.59 ± 0.18 |  |  |
| COc1ccc(OCc2cc3n(n2)[C@H](C)CN(c2ccc(F)cc2)C3=O)cc1 [Compound 34] | 5.98 ± 0.02 |  | 5.87 ± 0.16 |
| C[C@@H]1CN(c2ccc(F)cc2)C(=O)c2cc(COc3ccc(OC(F)(F)F)cc3)nn21 [Compound 39] | 5.39 ± 0.04 | > 30 µM | <4.5 |
| COc1cccc(N2C[C@@H](C)n3nc(COc4ccc(Cl)cn4)cc3C2=O)c1 [Compound 89] | 6.50 ± 0.05 |  |  |
| COc1cccc(OCc2cc3n(n2)[C@H](C)CN(c2ccc(F)cc2)C3=O)c1 [Compound 33] |  |  | 5.74 ± 0.04 |
| C[C@@H]1CN(c2ccccc2Cl)C(=O)c2cc(COc3ccc(Cl)cn3)nn21 [Compound 82] | 6.48 ± 0.08 |  |  |
| C[C@@H]1CN(c2ccc(F)cc2)C(=O)c2cc(COc3ncccc3C(F)(F)F)nn21 [Compound 42] |  | > 30 µM | <4.5 |

| Compound | mGlu3 pIC50 (± SEM) [1] | mGlu5: no activity up to the highest concentration tested [2] | mGlu5 pEC50 (± SEM) [2] |
| --- | --- | --- | --- |
| C[C@@H]1CN(c2ccc(F)cc2)C(=O)c2cc(COc3ccc(C#N)cc3)nn21 [Compound 37] | 6.11 ± 0.12 |  | 5.71 ± 0.06 |
| C[C@@H]1CN(c2ccc(F)cc2F)C(=O)c2cc(COc3ccc(Cl)cn3)nn21 [Compound 95] | 6.55 ± 0.08 |  |  |
| Cc1ccccc1OCc1cc2n(n1)[C@H](C)CN(c1ccc(F)cc1)C2=O [Compound 26] |  |  | 5.83 ± 0.04 |
| C[C@@H]1CN(c2ccc(F)cc2)C(=O)c2cc(COc3ccc(C(F)(F)F)cc3)nn21 [Compound 35] | 5.73 ± 0.01 |  | <4.5 |
| C[C@@H]1CN(c2ccc(F)cc2)C(=O)c2cc(COc3ccc(F)cn3)nn21 [Compound 47] | 6.27 ± 0.02 |  |  |
| C[C@@H]1CN(c2ccncc2)C(=O)c2cc(COc3ccc(F)cn3)nn21 [Compound 71] | 6.05 ± 0.04 |  | <4.5 |
| CCc1ccc(OCc2cc3n(n2)[C@H](C)CN(c2ccc(F)cc2)C3=O)cc1 [Compound 36] |  |  | 5.49 ± 0.03 |
| Cc1ccc(OCc2cc3n(n2)[C@H](C)CN(c2ccc(F)cc2)C3=O)cc1 [Compound 28] | 5.92 ± 0.02 |  | 5.97 ± 0.04 |
| C[C@@H]1CN(c2cccnc2)C(=O)c2cc(COc3ccc(F)cn3)nn21 [Compound 70] | 6.36 ± 0.13 |  |  |
| C[C@@H]1CN(c2ccc(F)cc2)C(=O)c2cc(COc3cc(C(F)(F)F)ccn3)nn21 [Compound 45] | 5.78 ± 0.01 |  |  |
| C[C@@H]1CN(c2ccc(C#N)cc2)C(=O)c2cc(COc3ccc(Cl)cn3)nn21 [Compound 93] | 6.27 ± 0.05 |  |  |
| C[C@@H]1CN(c2cccc(Cl)c2)C(=O)c2cc(COc3ccc(Cl)cn3)nn21 [Compound 83] | 6.25 ± 0.07 |  |  |
| C[C@@H]1CN(c2ccc(F)cc2)C(=O)c2cc(COc3cccc(C(F)(F)F)n3)nn21 [Compound 50] | 5.63 ± 0.02 | > 30 µM | <4.5 |
| C[C@@H]1CN(c2cccc(C#N)c2)C(=O)c2cc(COc3ccc(Cl)cn3)nn21 [Compound 92] | 6.08 ± 0.26 |  |  |
| COc1ccc(N2C[C@@H](C)n3nc(COc4ccc(F)cn4)cc3C2=O)cc1 [Compound 65] | 6.49 ± 0.10 |  |  |
| C[C@@H]1CN(c2ccccc2F)C(=O)c2cc(COc3ccc(Cl)cn3)nn21 [Compound 80] | 6.65 ± 0.04 |  |  |
| C[C@@H]1CN(c2cc(F)ccc2C#N)C(=O)c2cc(COc3ccc(Cl)cn3)nn21 [Compound 98] | 6.28 ± 0.06 | > 30 µM | <4.5 |
| CCOc1ccc(OCc2cc3n(n2)[C@H](C)CN(c2ccc(F)cc2)C3=O)cc1 [Compound 38] | 5.94 ± 0.06 | > 30 µM | <4.5 |
| Cc1cccc(OCc2cc3n(n2)[C@H](C)CN(c2ccc(F)cc2)C3=O)n1 [Compound 49] | 5.62 ± 0.02 |  |  |
| C[C@@H]1CN(c2ccc(F)cn2)C(=O)c2cc(COc3ccc(Cl)cn3)nn21 [Compound 104] | 6.59 ± 0.09 |  |  |
| Cc1ccccc1N1C[C@@H](C)n2nc(COc3ccc(Cl)cn3)cc2C1=O [Compound 85] | 6.24 ± 0.18 |  |  |
| C[C@@H]1CN(c2cc(F)cc(F)c2)C(=O)c2cc(COc3ccc(Cl)cn3)nn21 [Compound 97] | 6.38 ± 0.07 |  |  |
| C[C@@H]1CN(c2cccc(F)n2)C(=O)c2cc(COc3ccc(Cl)cn3)nn21 [Compound 105] | 6.53 ± 0.08 |  |  |
